Key:
[1] = test system: luciferase expression in the liver; experiment: In vivo luciferase mRNA expression rodent model (liver luciferase after tail vein injection of mRNA-LNP); set-up: species or system mice; conditions: tail vein injection, liver 4 hours after administration; for Liver Luc (ng luc/g liver), determined at 0.3 mg/kg: 0.3 mg/kg (footnote *)
Protocol: Lipid nanoparticles were prepared and tested according to the general procedures described in PCT Pub. Nos. WO 2015/199952 and WO 2017/004143, the full disclosures of which are incorporated herein by reference. Briefly, cationic lipid, DSPC, cholesterol and PEG-lipid were solubilized in ethanol at a molar ratio of about 50:10:38.5:1.5 or about 47.5:10:40.7:1.8. Lipid nanoparticles (LNP) were prepared at a total lipid to mRNA weight ratio of approximately 10:1 to 40:1. The mRNA is diluted to 0.2 mg/mL in 10 to 50 mM citrate or acetate buffer, pH 4. Syringe pumps were used to mix the ethanolic lipid solution with the mRNA aqueous solution at a ratio of about 1:5 to 1:3 (vol/vol) with total flow rates above 15 mL/min. The ethanol was then removed and the external buffer replaced with PBS by dialysis. Finally, the lipid nanoparticles were filtered through a 0.2 µm pore sterile filter. Lipid nanoparticle particle size was approximately 55-95 nm diameter, and in some instances approximately 70-90 nm diameter as determined by quasi-elastic light scattering using a Malvern Zetasizer Nano ZS (Malvern, UK).
Studies were performed in 6-8 week old female C57BL/6 mice (Charles River) or 8-10 week old CD-1 (Harlan) mice (Charles River) according to guidelines established by an institutional animal care committee (ACC) and the Canadian Council on Animal Care (CCAC). Varying doses of mRNA-lipid nanoparticle were systemically administered by tail vein injection and animals euthanized at a specific time point (e.g., 4 hours) post-administration. Liver and spleen were collected in pre-weighed tubes, weights determined, immediately snap frozen in liquid nitrogen and stored at −80° C. until processing for analysis.
For liver, approximately 50 mg was dissected for analyses in a 2 mL FastPrep tubes (MP Biomedicals, Solon OH). ¼″ ceramic sphere (MP Biomedicals) is added to each tube and 500 μL of Glo Lysis Buffer—GLB (Promega, Madison WI) equilibrated to room temperature is added to liver tissue. Liver tissues were homogenized with the FastPrep24 instrument (MP Biomedicals) at 2×6.0 m/s for 15 seconds. Homogenate was incubated at room temperature for 5 minutes prior to a 1:4 dilution in GLB and assessed using SteadyGlo Luciferase assay system (Promega). Specifically, 50 μL of diluted tissue homogenate was reacted with 50 μL of SteadyGlo substrate, shaken for 10 seconds followed by 5 minute incubation and then quantitated using a CentroXS^3 LB 960 luminometer (Berthold Technologies, Germany). The amount of protein assayed was determined by using the BCA protein assay kit (Pierce, Rockford IL). Relative luminescence units (RLU) were then normalized to total μg protein assayed. To convert RLU to ng luciferase a standard curve was generated with QuantiLum Recombinant Luciferase (Promega).
The FLuc mRNA (L-6107 or L-7202) from Trilink Biotechnologies will express a luciferase protein, originally isolated from the firefly, Photimus pyralis. FLuc is commonly used in mammalian cell culture to measure both gene expression and cell viability. It emits bioluminescence in the presence of the substrate, luciferin. This capped and poly-adenylated mRNA was fully substituted with respect to uridine and/or cytidine nucleosides.
Representative compounds of the disclosure shown in Table 2 were formulated using the following molar ratio: 50% cationic lipid/10% distearoylphosphatidylcholine (DSPC)/38.5% Cholesterol/1.5% PEG lipid 2-[2-(ω-methoxy(polyethyleneglycol2000)ethoxy]-N,N-ditetradecylacetamide) or 47.5% cationic lipid/10% DSPC/40.7% Cholesterol/1.8% PEG lipid. Relative activity was determined by measuring luciferase expression in the liver 4 hours following administration via tail vein injection as described in Example 1. The activity was compared at a dose of 1.0 or 0.5 or 0.3 mg mRNA/kg and expressed as ng luciferase/g liver measured 4 hours after administration, as described in Example 1. Compound numbers in Table 2 refer to the compound numbers of Table 1. […]

[2] = Determination of pKa of formulated lipids (TNS fluorescence assay in lipid nanoparticles); format: physicochemical; conditions: cationic lipid formulated in lipid nanoparticles (cationic lipid/DSPC/cholesterol/PEG-lipid 47.5/10/40.7/1.8 mol %)
Protocol: As described elsewhere, the pKa of formulated cationic lipids is correlated with the effectiveness of LNPs for delivery of nucleic acids (see Jayaraman et al, Angewandte Chemie, International Edition (2012), 51(34), 8529-8533; Semple et al, Nature Biotechnology 28, 172-176 (2010)). The preferred range of pKa is ˜5 to ˜7. The pKa of each cationic lipid was determined in lipid nanoparticles using an assay based on fluorescence of 2-(p-toluidino)-6-napthalene sulfonic acid (TNS). Lipid nanoparticles comprising cationic lipid/DSPC/cholesterol/PEG-lipid (47.5/10/40.7/1.8 mol %) in PBS at a concentration of 0.4 mM total lipid were prepared using the in-line process as described in Example 1. TNS was prepared as a 100 μM stock solution in distilled water. Vesicles were diluted to 24 μM lipid in 2 mL of buffered solutions containing, 10 mM HEPES, 10 mM MES, 10 mM ammonium acetate, 130 mM NaCl, where the pH ranged from 2.5 to 11. An aliquot of the TNS solution was added to give a final concentration of 1 μM and following vortex mixing fluorescence intensity was measured at room temperature in a SLM Aminco Series 2 Luminescence Spectrophotometer using excitation and emission wavelengths of 321 nm and 445 nm. A sigmoidal best fit analysis was applied to the fluorescence data and the pKa was measured as the pH giving rise to half-maximal fluorescence intensity.

| Compound | Liver Luc (ng luc/g liver), determined at 0.3 mg/kg [1] [ng luc/g liver] | Liver Luc (ng luc/g liver), determined at 1.0 mg/kg [1] [ng luc/g liver] | pKa [2] |
| --- | --- | --- | --- |
| CCCCC(CC)COC(=O)CCCCCCCCC(CCCCCCCCC(=O)OCC(CC)CCC)N(CCCCN(C)C)C(=O)C(F)(F)C(F)(F)C(F)(F)C(F)(F)C(F)(F)C(F)(F)C(F)(F)F (stereo not drawn) [I-5 analogue, reference compound] | 666 ± 589 | 1338 ± 798 | 6.86 |
| CCCCCCCC(=O)N(C(=O)CCCCN(C)C)C(CCCCCC(=O)OCC(CCCC)CCCCC)CCCCCC(=O)OCC(CCCC)CCCCCC (stereo not drawn) [I-11 analogue, reference compound] | 1626 ± 472 | 8102 ± 4319 | 7.04 |

Reference: patent US20250092002A1, “FLUORINATED CATIONIC LIPIDS FOR USE IN LIPID NANOPARTICLES” (Acuitas Therapeutics, Inc., priority 2021, published 2025)
